Laboratory results reported in US20020155088A1, “Tumor treatment by using oligoaniline” (priority 2001, published 2002).

Assays:
ferricytochrome C = assay: In vitro irradiation-induced superoxide generation (ferricytochrome C reduction); assay type: biochemical; conditions: 25 μM A16S aqueous solution, fluorescence light 27 watts, irradiation time 0, 30, 60, 90 minutes
Procedure: The mixture thus obtained was added into wells of a 24-well plate, and exposed to fluorescence light source (27 watts) for 0-90 minutes. The distance between the plate cover and the light source was 5-6 cm. The reduction extent of ferricytochrome C was evaluated based on its absorbance at 550 nm, which corresponded to the increase of the quantity of reduced ferrocytochrome C.

[1] = tested on: Murine sarcoma 180 cells (subcutaneous tumors); assay: In vivo photodynamic therapy study in tumor-bearing mice; set-up: species or system male ICR mice; conditions: 10 mg/kg intraperitoneal
Text: Oligoanilines that show efficacy in preliminary studies can be further tested to confirm their efficacy by an in vivo assay on tumor-bearing mice. For example, see Chiang, et al. Proc. Electrochem. Soc., 1999, 99-12, 238-249. More specifically, a tumor-bearing mouse can be first administered with an oligoaniline to be tested in PBS close to the tumor site. The mouse is then kept in the dark while the oligoaniline is circulated to the tumor site. The tumor site is exposed by removing the hair on and around it, and then irradiated with a laser beam or other light source. After the irradiation, the growth of the tumor in the mouse is examined at different time intervals. The inhibitory effect can be evaluated by measuring the body weights of the mouse and the volumes of the tumor. After the mouse is sacrificed, the final body weight, the weights of various organs, and the final volume and weight of the tumor are measured; and blood is collected for biochemistry and hematology analyses. The data are evaluated used to determine the photodynamic therapeutic and other effects. […]
The mice in groups (1) and (2) were subsequently kept in the dark for 24 hours, and then anesthetized with avertine (0.3 mL/head). […] After the irradiation, the body weights and tumor volumes of the mice were measured every 5 days for 30 days. […]

[2] = tested on: Fibrosarcoma cells (CCRC60037) and sarcoma 180 cells; assay: In vitro irradiation-induced cytotoxicity based on tumor cell viability (MTT/formazon)
Procedure: An in vitro inhibition assay can be performed to preliminarily evaluate an oligoaniline's ability to inhibit the growth of tumor cells. For example, an oligoaniline solution is added to a pre-incubated cell suspension. Subsequently, the cell suspension is irradiated with fluorescence light, followed by further incubation. A 3-(4,5-dimethylthiazol-2-yl)-2,5-diphenyl-tetrazolium bromide solution is then added to the cell suspension to react with mitochrondrial dehydrogenase to form formazon, which is extracted with dimethyl sulfoxide (DMSO). The DMSO extract solution is immediately used for optical measurement to determine the formazon quantity, which correlates with the quantity of dehydrogenase or the relative number of the living cells.
Two types of tumor cells used in this study were prepared as follows: Fibrosarcoma cells (CCRC60037) and sarcoma 180 cells (obtained form Biochemical Institute of Chung Shan Medical and Dental College, Taiwan) were maintained and cultured in an cc-modified eagle medium (MEM) containing L-glutamine and phenol red, 10% fetal bovine serum, and antibiotics (100 units/mL of penicillin G and 100 μg/mL streptomycin sulfate). The cells were incubated in the dark in 95% humidified air plus 5% CO2, harvested by treatment with trypsin-EDTA, and then suspended in an α-MEM at the concentration of 1×10^4 cells/mL.
The cell suspension thus obtained was placed in wells of a 24-well plate (500 μL each) and pre-incubated at 37° C. for 24 hours. A16S solutions of various concentrations (0-10 μM) were then added to the wells (500 μL each). The wells were irradiated with fluorescence light (27 watts) for 0-60 minutes. The distance between the plate cover and the light source was 5-6 cm. After irradiation, the cells were further incubated for 48 hours. A solution of 3-(4,5-dimethylthiazol-2-yl)-2,5-diphenyl-tetrazolium bromide (0.5% in PBS; 100 μL each) was then added to each cell suspension, thereby causing the cells to produce formazon. After incubation at 37° C. for 3 hours, the suspension medium was discarded. Formazon formed in the cells from each well was extracted with DMSO (1.0 mL), and the DMSO extract solution was immediately measured for absorbance at […]. The absorbance directly correlated with the quantity of formazon, and thus with the quantity of dehydrogenase enzyme or the relative number of the living cells (i.e., viability). […] A maximal photodynamic cytotoxicity efficacy of >90% was obtained at an A16S concentration of 5.0-10.0 μM and an irradiation time of 60 minutes.

Substance: Sulfobutylated Hexadecaaniline [A16S]
- amount of superoxide free radicals (ferrocytochrome C absorbance at 550 nm) (ferricytochrome C): increased as the irradiation time increased
- average tumor weight relative to tumor control group ([1]; laser 633 nm 100 J/cm^2, day 30): about 40%
- tumor growth rates versus tumor control group ([1]; laser 633 nm 100 J/cm^2, entire 30 day study period): much lower
- cell viability ([2]; A16S 0-10 μM, fluorescence light 27 watts, irradiation 0-60 minutes, 48 hours further incubation): decreased as the A16S dosage and irradiation time increased
- maximal photodynamic cytotoxicity efficacy ([2]; A16S 5.0-10.0 μM, irradiation time 60 minutes): > 90%
- IC50 ([2]; irradiation time 60 minutes): 1000 nM
- viable cells ([2]; irradiation time 60 minutes, A16S concentration increased from 0 to 2.5 μM): a sharp loss of viable cells was observed
- cytotoxicity in the absence of light irradiation ([2]; no irradiation, highest A16S concentration 10.0 μM): no cytotoxicity was observed
